Ends that are not written are not given here.
How the values were obtained:
MonoMac-6 cells = assay type: cell-based, human; conditions: 10 µM Cf-peptide, 2 h, LysoTracker, ImageJ JACoP on merged images
Description: Cellular uptake and localization were visualized by confocal laser scanning microscopy. MonoMac-6 cells were seeded 1 day prior to treatment into coverslips (thickness 1, Assistent, Karl Hecht GmbH, Sondheim vor der Rhön, Germany) containing a 24-well plate (Sarstedt, Nümbrecht, Germany) for microscopy studies at a density of 7.5 × 10^4 cells/well, in 1 ml complete DMEM medium. The following day, cells were treated with Cf-peptide at a concentration of 10 µM (diluted in serum-free DMEM medium) for 2 h. Lysosomes were stained by LysoTracker Deep Red (Invitrogen, Waltham, MA, USA) for 30 min, and nuclei were stained by Hoechst 33342 solution (Thermo Scientific, USA). After each step, cells were washed three times with serum-free medium, then cells were fixed by 4% paraformaldehyde for 15 min and mounted to microscopy slides with Mowiol 4-88 (Sigma, Budapest, Hungary). Imaging was performed by a Zeiss LSM-710 system (Carl Zeiss microscopy GmbH, Oberkochen, Germany) with a ×40/1.4 Plan-Apochromat oil immersion objective using lasers with the parameters: Cf peptides λex = 488 nm, λem = 541 nm, nuclei λex = 405 nm, λem = 467 nm (Hoechst 33342), lysosomes λex = 633 nm, λem = 720 nm (LysoTrackerTM Deep Red) or λex = 577 nm, λem = 590 nm (LysoTrackerTM Red DND-99) were used. Zeiss ZEN lite software (Carl Zeiss Microscopy GmbH, Jena, Germany) was used for image processing.
Parallel with flow cytometry measurements, confocal laser scanning microscopy images were also captured in order to assess qualitative information on intracellular localization. LysoTrackerTM Deep Red was used for lysosome and Hoechst 33342 for nuclear staining to distinguish subcellular localization of the Cf-peptide. […] Colocalization of Cf-peptide and LysoTracker may be subjectively identified by the cooccurrence, the simple spatial overlap which combined the contribution of both signals (green and red) when the images of each signal are superimposed (merged, see Supplementary Figure S3 ).
microscopy at the 10 µM Cf-peptide concentration (based on flow cytometry profile), and MonoMac6 cells were incubated for 2 hrs.
the visible differences among localization profiles of the Cf-peptides, we applied greyscale analysis of
the images and the evaluation was carried out on a representative peptide set.
were studied and the treatment, the staining and fixation process were carefully optimized to assess
Laser intensity values were identical in case of all Cf-peptides. ZEN 3.0 blue lite software
was used for image processing and grey scale values were extracted using NIH ImageJ software’s Plot

[1] = Analytical RP-HPLC retention time (correlates with overall hydrophobicity); assay type: physicochemical; design: Rt (retention time): unit not given here; conditions: for Rt (retention time): chromatographic measure of hydrophobicity, Waters Acquity UPLC BEH C18 (1.7 µm, 150 × 2.1 mm), flow rate 0.3 ml/min, gradient 2% B 1 min, 2%–100% B 16 min, single peak or first of two 5(6)-Cf isomer peaks; for Rt (retention time), second peak: same column and gradient, second peak due to 5(6)-Cf isomers
Description: Purified peptides were analyzed by LC-MS using a Thermo Scientific Q Exactive Focus Hybrid Quadrupole-Orbitrap Mass Spectrometer. For the separation, a Waters Acquity UPLC BEH C18 (1.7 µm, 150 × 2.1 mm) column was used with a flow rate of 0.3 ml/min.
For INH conjugation, representative cell-penetrating (CPP) and antimicrobial peptides (AMP) were chosen. These cationic, amphiphilic peptides are favored in the transportation of various cargos due to their high internalization rate. The used peptide series contains well-known CPPs such as penetratin, transportan, and Tat, frequently studied AMPs such as magainin and buforin, and designed analogs such as Dhvar4, Crot(1-9,38-42), and CM15. Also, a receptor-binding tuftsin analog (OT20), which was reported as a macrophage-targeting peptide, was also applied. […] Mass spectra and RP-HPLC chromatograms are available at https://figshare.com/s/48a023a25068f7658adf, DOI: 10.6084/m9.figshare.16644901. […] To study the internalization rate and intracellular localization, fluorescently labeled analogs were also synthesized. Note that the retention time of Cf-peptide are somewhat higher than unlabeled analogs, and in some cases, two peaks were detected due to the isomeric distribution of 5(6)-Cf molecule.

[2] = assay type: in vitro ADME; conditions: rat liver lysosomal homogenate, 37 °C, LC-MS
Description: Next, we examined the enzymatic stability of two peptide conjugates in rat liver lysosomal homogenate (see Supplementary Information 2 for the method description). Peptides were dissolved at 0.025 µg/µl concentration then allowed to react with the lysosomal homogenate. Degradation of the conjugates was fast. […]
1.2 Lysosomal degradation studies
Enzymatic stability of INH-Dhvar4 and INH-Penetratin conjugates were assayed in rat liver lysosomal homogenate (protein content was 16.6 µg/µl). Peptides were dissolved in 0.2 M Sodium acetate buffer (pH=5.03) at 0.025 µg/µl concentration and added to the lysosomal homogenate to reach 1 : 1 protein / peptide ratio (37 °C, 600 rpm vortex) . At different time points (5 min, 30 min, 1 h, 6 h, 24 h) the reaction was stopped by the addition of 5 µl formic acid. Sampled were then measured by LC-MS using a Thermo Scientific Q Exactive Focus Hybrid Quadrupole -Orbitrap Mass Spectrometer (Suppl. Figu re 1). For chromatography, a Wa ters Acquity UPLC BEH C18 (1.7 µ, 150 × 2.1 mm) column was used with a flow rate of 300 µL/min applying a gradient elution from 2% to […]
(1 picture or pasted object on this page, not shown here)

[3] = system: CALU-1 monolayer / EBC-1 cells; assay type: in vitro ADME, human; conditions: Transwell, 0.4 µm polycarbonate, Cf-peptide apical 10 and 20 µM, 45 min, apical to basolateral; EBC-1 fluorescence read-out
Description: EBC-1 lung squamous carcinoma and CALU-1 human lung epidermoid carcinoma were seeded on 24-well plates with Transwell inserts (TW) [Nunc, Sigma polycarbonate microporous membrane, 0.4 µm pore size (growth area 0.412 cm^2)]. Before use, TW inserts were incubated with ICM. On day 1, 300 μl of CALU-1 suspension in complete DMEM medium (8.0 × 10^5 cells) was pipetted onto the surface of the TW apical chamber and 500 μl complete DMEM medium was added to the basolateral side. In order to avoid nonattached cells, after incubation at 37°C for 5–6 h, the apical medium was removed and replaced with fresh complete DMEM medium. […] On day 5, the medium was changed, then Cf-peptide was added to the CALU-1-containing apical side at 10 and 20 µM concentrations, and the system was incubated for 45 min or 3 h (37°C, 5% CO2). The TW chamber was removed after incubation. EBC-1 cells were studied using flow cytometry (BD LSR II).
EBC-1 cells were treated without the presence of the TW inserts as controls (on day 4 prior to treatment, EBC-1 cells (10^5 cells/well in complete DMEM). […]
Figure 7 The penetration ability of Cf-peptides was determined on Transwell bronchial interface, and the penetration rates were quantified by flow cytometry. […] The confluence of CALU-1 monolayer was monitored with CellTracker Green, and after development of stable green fluorescence, cells were imaged in situ. […]

Molecule	Rt (retention time) [1]	further results
Cf-KWKLFKKIGAVLKVL [Cf-CM15, 5(6)-carboxyfluorescein-labeled CM15]	9.6	Pearson's coefficient of colocalization with lysosomal staining (MonoMac-6 cells): 0.358; Rt (retention time), second peak [1]: 9.7
RAGLQFPVGRVHRLLRK-NH2 [Buforin, reference compound]	6.6	–
Cf-GIGAVLKVLTTGLPALISWIKRKRQQ [Cf-Melittin, 5(6)-carboxyfluorescein-labeled melittin]	12.2	–
YKQCHKKGGKKGSG-NH2 [Crot(1-9,38-42), reference compound]	0.8	–
TKPKGTKPKGTKPKGTKPKG-NH2 [OT20, reference compound]	1.6	–
CC[C@H](C)[C@H](NC(=O)CN)C(=O)NCC(=O)N[C@@H](C)C(=O)N[C@H](C(=O)N[C@@H](CC(C)C)C(=O)N[C@@H](CCCCN)C(=O)N[C@H](C(=O)N[C@@H](CC(C)C)C(=O)N[C@H](C(=O)N[C@H](C(=O)NCC(=O)N[C@@H](CC(C)C)C(=O)N1CCC[C@H]1C(=O)N[C@@H](C)C(=O)N[C@@H](CC(C)C)C(=O)N[C@H](C(=O)N[C@@H](CO)C(=O)N[C@@H](Cc1c[nH]c2ccccc12)C(=O)N[C@H](C(=O)N[C@@H](CCCCN)C(=O)N[C@@H](CCCNC(=N)N)C(=O)N[C@@H](CCCCN)C(=O)N[C@@H](CCCNC(=N)N)C(=O)N[C@@H](CCC(N)=O)C(=O)N[C@@H](CCC(N)=O)C(N)=O)[C@@H](C)CC)[C@@H](C)CC)[C@@H](C)O)[C@@H](C)O)C(C)C)C(C)C [Melittin, reference compound]	10.6	–
Cf-TKPKGTKPKGTKPKGTKPKG [Cf-OT20, 5(6)-carboxyfluorescein-labeled OT20]	4.9	Rt (retention time), second peak [1]: 5.0
Cf-YKQCHKKGGKKGSG [Cf-Crot(1-9,38-42), 5(6)-carboxyfluorescein-labeled Crot(1-9,38-42)]	5.5	Rt (retention time), second peak [1]: 5.8
Cf-RAGLQFPVGRVHRLLRK [Cf-Buforin, 5(6)-carboxyfluorescein-labeled buforin]	7.7	Rt (retention time), second peak [1]: 7.8
Cf-YGRKKRRQRRR [Cf-Tat, 5(6)-carboxyfluorescein-labeled Tat]	4.6	Rt (retention time), second peak [1]: 5.0
N=C(N)NCCC[C@H](NC(=O)[C@H](CCCNC(=N)N)NC(=O)[C@H](CCCNC(=N)N)NC(=O)[C@H](CCC(N)=O)NC(=O)[C@H](CCCNC(=N)N)NC(=O)[C@H](CCCNC(=N)N)NC(=O)[C@H](CCCCN)NC(=O)[C@H](CCCCN)NC(=O)[C@H](CCCNC(=N)N)NC(=O)CNC(=O)[C@@H](N)Cc1ccc(O)cc1)C(N)=O [Tat, reference compound]	0.9	–
KWKLFKKIGAVLKVL-NH2 [CM15, reference compound]	8.4	–
Cf-GIGKFLHSAKKFGKAFVGEIMNS [Cf-Transportan, 5(6)-carboxyfluorescein-labeled transportan]	–	Pearson's coefficient of colocalization with lysosomal staining (MonoMac-6 cells): 0.823
GIGKFLHSAKKFGKAFVGEIMNS-NH2 [Magainin, reference compound]	8.2	–
Cf-AGYLLGKINLKALAALAKKIL [Cf-Penetratin, 5(6)-carboxyfluorescein-labeled penetratin]	–	Pearson's coefficient of colocalization with lysosomal staining (MonoMac-6 cells): 0.490
CC[C@H](C)[C@H](NC(=O)[C@H](CCCCN)NC(=O)[C@H](CCCCN)NC(=O)[C@H](C)NC(=O)[C@H](CC(C)C)NC(=O)[C@H](C)NC(=O)[C@H](C)NC(=O)[C@H](CC(C)C)NC(=O)[C@H](C)NC(=O)[C@H](CCCCN)NC(=O)[C@H](CC(C)C)NC(=O)[C@H](CC(N)=O)NC(=O)[C@@H](NC(=O)[C@H](CCCCN)NC(=O)CNC(=O)[C@H](CC(C)C)NC(=O)[C@H](CC(C)C)NC(=O)[C@H](Cc1ccc(O)cc1)NC(=O)CNC(=O)[C@H](C)N)[C@@H](C)CC)C(=O)N[C@@H](CC(C)C)C(N)=O [reference compound]	10.6	–
CC[C@H](C)[C@H](NC(=O)[C@H](CCCCN)NC(=O)[C@@H](NC(=O)[C@H](CCC(N)=O)NC(=O)[C@H](CCCNC(=N)N)NC(=O)CNNC(=O)c1ccncc1)[C@@H](C)CC)C(=O)N[C@@H](Cc1c[nH]c2ccccc12)C(=O)N[C@@H](Cc1ccccc1)C(=O)N[C@@H](CCC(N)=O)C(=O)N[C@@H](CC(N)=O)C(=O)N[C@@H](CCCNC(=N)N)C(=O)N[C@@H](CCCNC(=N)N)C(=O)N[C@@H](CCSC)C(=O)N[C@@H](CCCCN)C(=O)N[C@@H](Cc1c[nH]c2ccccc12)C(=O)N[C@@H](CCCCN)C(=O)N[C@@H](CCCCN)C(N)=O [INH-Penetratin]	–	peaks of the intact conjugates after 30 min of incubation ([2]; 0.2 M sodium acetate buffer pH 5.03, 0.025 µg/µl, 1:1 protein/peptide ratio): almost disappeared; most stable fragment (main peak after 24 h of incubation) ([2]; pH 5.03, 0.025 µg/µl): tetrapeptide (RQIK) with INH
CC[C@H](C)[C@H](NC(=O)[C@H](CCCCN)NC(=O)[C@@H](NC(=O)[C@H](CCC(N)=O)NC(=O)[C@@H](N)CCCNC(=N)N)[C@@H](C)CC)C(=O)N[C@@H](Cc1c[nH]c2ccccc12)C(=O)N[C@@H](Cc1ccccc1)C(=O)N[C@@H](CCC(N)=O)C(=O)N[C@@H](CC(N)=O)C(=O)N[C@@H](CCCNC(=N)N)C(=O)N[C@@H](CCCNC(=N)N)C(=O)N[C@@H](CCSC)C(=O)N[C@@H](CCCCN)C(=O)N[C@@H](Cc1c[nH]c2ccccc12)C(=O)N[C@@H](CCCCN)C(=O)N[C@@H](CCCCN)C(N)=O [Penetratin, reference compound]	6.1	penetration through CALU-1 monolayer and internalization into EBC-1 cells [3]: higher internalization rates
